PubChem BioAssay AID1919009 (Molecular Pharmacology Branch, DTP, NCI, 2023)
pIC50: −log10 of the molar value. Several values for one entry are separate records, joined by “and”; a condition that tells them apart may be missing. Identical values can stand only once.

Tested on: K24384-001-R-PDC complex spheroid growth
Experiment: Anticancer human tumor K24384-001-R-PDC patient-derived pancreatic adenocarcinoma cell line growth inhibition [AhR]
Details: for viability, T/C: stronger effect = lower value; active means viability on the fitted dose curve at most 10% of control; inactive means the rest
Source text: Multicellular complex tumor spheroid response to aryl hydrocarbon receptor antagonists in combination with a variety of drugs and investigational agents in selected tumor cell lines
The current study was undertaken to assess response to aryl hydrocarbon receptor antagonists in combination with standard-of-care drugs and investigational agents in solid tumor complex spheroid models. Complex spheroids include a stromal component modeled by human endothelial cells (HUVEC) and fibroblasts modeled by human mesenchymal stem cells (MSCs). The concentration ranges selected for each drug and investigational agent were based upon clinically achievable concentrations if the clinical Cmax of the agent was known.
Compounds. The drugs and investigational agents: BAY 2416964 (NSC825713), GNF351 (NSC835774), CH-223191 (NSC835775), CPI-455 (NSC825282), aza-TdCyd (NSC777586), decitabine (NSC127716), belinostat (NSC758774), entinostat (NSC756642), pevonedistat (NSC761192), tazemetostat (NSC777109), talazoparib (NSC765396), olaparib (NSC753686), selinexor (NSC780203), nedisertib (M3814, NSC802822), bortezomib (NSC756655), venetoclax (NSC766270), doxorubicin (NSC123127), elimusertib (BAY189344, NSC800525), ceralasertib (AZD6738, NSC777638), TAK-243 (NSC785004), alisertib (NSC759677), etoposide (NSC141540), topotecan (NSC609699), eribulin (NSC707389), gemcitabine (NSC613327), carboplatin (NSC241240), cisplatin (NSC119875), and SN-38 (NSC673596) were obtained from the National Cancer Institute (NCI) Developmental Therapeutics Program Chemical Repository (32). The FDA-approved anticancer drug set is available from the Developmental Therapeutics Program at https://dtp.cancer.gov/organization/dscb/obtaining/available plates.htm. […] The stock solutions were prepared in dimethyl sulfoxide (DMSO, Sigma-Aldrich, St. Louis, MO, cat. D2650), except for the platinum compounds which were prepared in saline (Quality Biological, Gaithersburg, MD, cat. 114-055-101), at 800-fold the tested concentration and stored at -70 degrees C prior to their use. All drugs and investigational agents were tested over a range starting from a high concentration at or near the clinical Cmax and decreasing in half-log increments. If the clinical Cmax for an agent had not been determined, the highest concentration tested was 10 microM (Table 1).
Cell Culture. All cells were maintained in an incubator at 37 degrees C and 5% CO2 with 95% humidity. The PDC lines were cultured according to standard operating procedures established by the NCI PDMR (https://pdmr.cancer.gov). Briefly, all PDCs were thawed and cultured in Matrigel-coated flasks prepared with a working solution of 1X Ham's F-12 nutrient mix, without supplementation (Invitrogen, Waltham, MA, cat. 11765054), 100 U/mL penicillin-streptomycin (Invitrogen, cat. 15140122), and 2.5% Matrigel (Corning Inc., Corning, NY, cat. 354248) for the first three passages. All PDCs were cultured in complete DMEM/F-12 media containing advanced DMEM/F-12 (Invitrogen, cat. 12634028), 4.9% defined fetal bovine serum, heat inactivated (HyClone Laboratories Inc., Logan, UT, cat. SH30070.03HI), 389 ng/mL hydrocortisone (Sigma-Aldrich, cat. H4001), 9.7 ng/mL human EGF recombinant protein (Invitrogen, cat. PHG0313), 23.4 microg/mL adenine (Sigma-Aldrich, cat. A2786), 97.3 U/mL penicillin-streptomycin (Invitrogen, cat. 15140122), 1.9 mM L-glutamine (Invitrogen, cat. 25030081), and 9.7 microM Y-27632 dihydrochloride (Tocris Bioscience, Bristol, United Kingdom, cat. 1254). The PDCs were cultured in complete DMEM/F12 media without 10 microM Y-27632 dihydrochloride for at least two passages prior to the screen. The established cell lines NCI-H1341 and […] were cultured in DMEM/F-12, HEPES (Invitrogen, cat. 11330032), 5% defined fetal bovine serum (HyClone Laboratories Inc., cat. SH30070.03), ITS premix universal culture supplement [insulin (5 microg/mL), transferrin (5 microg/mL), and selenious acid (5 ng/mL)] […]
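Wherever viability, T/C is given: percent of DMSO vehicle-treated spheroid viability set as 100%.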

CC(C)CC(NC(=O)C(Cc1ccccc1)NC(=O)c1cnccn1)B(O)O (stereo not drawn)
7.92 and 7.88 and 8.22: pIC50 (curve of compound)
inactive: viability, T/C (compound 0.000949 µM) 105% and 92.1% and 95.6% | viability, T/C (compound 0.003 µM) 108% and 98.8% and 96.7% | viability, T/C (compound 0.00949 µM) 62.6% and 70.1% and 20.1%
active: viability, T/C (compound 0.03 µM) 2.24% and 1.22% and 0.66% | viability, T/C (compound 0.0949 µM) 0.59% and 0.38% and 0.4% | viability, T/C (compound 0.3 µM) 0.39% and 0.36% and 1.49%

CC(C)c1c(-c2ccccc2)nc2c(C#N)c[nH]n2c1=O
< 5.00: pIC50 (curve of compound)
inactive: viability, T/C (compound 0.0316 µM) 108% and 110% and 104% | viability, T/C (compound 0.1 µM) 95% and 105% (2×) | viability, T/C (compound 0.316 µM) 98.1% and 105% and 104% | viability, T/C (compound 1 µM) 93.7% and 93.4% and 98.7% | viability, T/C (compound 3.16 µM) 91.1% and 103% (2×) | viability, T/C (compound 10 µM) 91.9% and 98.8% and 81%

CC(CO)NC(=O)c1cc(-c2ccc(Cl)cc2)nn(-c2cnn(C)c2)c1=O (stereo not drawn)
< 5.00: pIC50 (compound alone, run of 05/31/2022)

CC1(C)CCC(CN2CCN(c3ccc(C(=O)NS(=O)(=O)c4ccc(NCC5CCOCC5)c([N+](=O)[O-])c4)c(Oc4cnc5[nH]ccc5c4)c3)CC2)=C(c2ccc(Cl)cc2)C1
5.15 and < 5.00: pIC50 (curve of compound)
inactive: viability, T/C (compound 0.0316 µM) 104% (2×) and 108% | viability, T/C (compound 0.1 µM) 90.7% and 115% and 103% | viability, T/C (compound 0.316 µM) 90% and 103% and 106% | viability, T/C (compound 1 µM) 111% and 105% and 92.7% | viability, T/C (compound 3.16 µM) 126% and 88.2% and 84.7% | viability, T/C (compound 10 µM) 25.9% and 60.7% and 62.5%

CC1COCCN1c1cc(-c2ccnn2C)c2ccnc(-c3ccn[nH]3)c2n1 (stereo not drawn)
7.03 and 6.69: pIC50 (curve of compound)
inactive: viability, T/C (compound 0.00316 µM) 93% and 95.6% and 116% | viability, T/C (compound 0.01 µM) 92.2% and 102% and 116% | viability, T/C (compound 0.0316 µM) 82.7% and 80.5% and 89% | viability, T/C (compound 0.1 µM) 47.8% and 48.9% and 65% | viability, T/C (compound 0.316 µM) 30.6% and 29.8% and 41.7% | viability, T/C (compound 1 µM) 27.8% and 28.6% and 29.4%

CC1COCCN1c1cc(C2(S(C)(=N)=O)CC2)nc(-c2ccnc3[nH]ccc23)n1 (stereo not drawn)
inactive: viability, T/C (compound 0.0316 µM) 107% and 105% and 126% | viability, T/C (compound 0.1 µM) 98.2% and 113% and 97.1% | viability, T/C (compound 0.316 µM) 105% and 102% and 95.6% | viability, T/C (compound 1 µM) 85% and 85.7% and 89.4% | viability, T/C (compound 3.16 µM) 71.8% and 56.9% and 59.7% | viability, T/C (compound 10 µM) 37.3% and 32.7% and 45.1%
5.19 and 5.37 and 5.12: pIC50 (curve of compound)

CCN(c1cc(-c2ccc(CN3CCOCC3)cc2)cc(C(=O)NCc2c(C)cc(C)[nH]c2=O)c1C)C1CCOCC1
< 5.52: pIC50 (curve of compound)
inactive: viability, T/C (compound 0.00949 µM) 108% and 104% and 103% | viability, T/C (compound 0.03 µM) 116% and 114% and 95.3% | viability, T/C (compound 0.0949 µM) 120% and 111% and 97.5% | viability, T/C (compound 0.3 µM) 87.1% and 95.9% and 103% | viability, T/C (compound 0.949 µM) 98.3% and 89% and 90% | viability, T/C (compound 3 µM) 101% (2×) and 87.2%

CC[C@@]1(O)C(=O)OCc2c1cc1n(c2=O)Cc2cc3c(CN(C)C)c(O)ccc3nc2-1
inactive: viability, T/C (compound 0.000316 µM) 107% and 108% and 98.2% | viability, T/C (compound 0.001 µM) 99.3% and 117% and 102% | viability, T/C (compound 0.00316 µM) 95.4% and 87.5% and 95.7% | viability, T/C (compound 0.01 µM) 89.1% and 80% and 82.3% | viability, T/C (compound 0.0316 µM) 77.6% and 75.8% and 57.6% | viability, T/C (compound 0.1 µM) 53.6% and 53.5% and 41.5%
< 7.00 and 7.27: pIC50 (curve of compound)

CCc1c2c(nc3ccc(O)cc13)-c1cc3c(c(=O)n1C2)COC(=O)[C@]3(O)CC
inactive: viability, T/C (compound 0.000949 µM) 70.9% and 79.9% and 78.5% | viability, T/C (compound 0.003 µM) 67% and 71.9% and 67.1% | viability, T/C (compound 0.00949 µM) 58.6% and 52.8% and 65% | viability, T/C (compound 0.03 µM) 43.8% and 54.9% and 51.5% | viability, T/C (compound 0.0949 µM) 38.5% and 51% and 50.3% | viability, T/C (compound 0.3 µM) 27.5% and 39.2% and 36.9%
7.68 and 7.32 and 7.24: pIC50 (curve of compound)

COc1cc(C2c3cc4c(cc3C(OC3OC5COC(C)OC5C(O)C3O)C3COC(=O)C23)OCO4)cc(OC)c1O (stereo not drawn)
5.85 and 5.58 and 5.74: pIC50 (curve of compound)
inactive: viability, T/C (compound 0.0316 µM) 106% and 96.2% and 98% | viability, T/C (compound 0.1 µM) 86.7% and 100% and 103% | viability, T/C (compound 0.316 µM) 60.8% and 83.3% and 80.6% | viability, T/C (compound 1 µM) 53.5% and 62.9% and 58.8% | viability, T/C (compound 3.16 µM) 48.5% and 51% and 43.7% | viability, T/C (compound 10 µM) 39% and 34.7% and 37.7%

COc1cc(Nc2ncc3c(n2)-c2ccc(Cl)cc2C(c2c(F)cccc2OC)=NC3)ccc1C(=O)O
inactive: viability, T/C (compound 0.0316 µM) 97.3% and 91.9% and 85.7% | viability, T/C (compound 0.1 µM) 68.5% and 72.4% and 74.3% | viability, T/C (compound 0.316 µM) 63.9% and 60% and 69.9% | viability, T/C (compound 1 µM) 44.3% and 55.1% and 50.6% | viability, T/C (compound 3.16 µM) 52.4% and 54.8% and 52.6% | viability, T/C (compound 10 µM) 55.5% and 62.7% and 57%
< 5.00: pIC50 (curve of compound)

COc1ccc([C@@H](O)c2cc(-c3ncnc4cc(N5CCOCC5)ccc34)c(F)cc2Cl)nn1
5.26 and 5.15 and < 5.00: pIC50 (curve of compound)
inactive: viability, T/C (compound 0.0316 µM) 107% and 86.3% and 109% | viability, T/C (compound 0.1 µM) 101% (2×) and 104% | viability, T/C (compound 0.316 µM) 96.8% and 94.6% and 105% | viability, T/C (compound 1 µM) 76% and 81.3% and 72.5% | viability, T/C (compound 3.16 µM) 63.3% and 73.9% and 71.7% | viability, T/C (compound 10 µM) 37.4% and 39.9% and 49.7%
